Structures are written as SMILES.

The test system of data set [1] is sorbitol accumulation in tissues (erythrocytes, sciatic nerve, lens). The data set is described as follows: Inhibitory action on sorbitol accumulation in tissues of rats with experimental diabetes. The data set is classed as in vivo, Sprague-Dawley rats. The following applies: streptozotocin rats, 3 hours after final administration, control taken as 100%. The protocol: Sprague-Dawley rats (male, 6 weeks old, 5-6 per group) were fasted for 18 hours and injected with streptozotocin (SIGMA, 60 mg/kg) via the tail vein under etherization to prepare rats with diabetes.
[…] During the administrations, the rats were raised under free access to feed and water and the sorbitol content in the tissues (erythrocytes, sciatic nerve, lens) was determined 3 hours after the final administration according to the enzyme method of H. Y. Bergmeyer et al. [Methods of Enzymatic Analysis, vol. 3, 1323-1330 (1974)] with the use of SDH (sorbitol dehydrogenase) and NAD (β-nicotinamide adenine dinucleotide). The results are expressed in percent (%) relative to the value of a control group administered with 0.5% carboxymethylcellulose solution (solvent) instead of the compound, which was taken as 100%.

Another data set deals with T1, aldose reductase (Sus scrofa, UniProt P80276).
T1 construct: An aldose reductase enzyme standard product was prepared from swine lens; from tissue; host or cells: swine lens
Nature of the data set: Aldose reductase inhibitory action. The following applies: swine lens enzyme, diglyceraldehyde substrate 3 mM, 0.1 mM NADPH, pH 6.2, 25° C., 2 minutes; read-out: IC50 (concentration inhibiting the aldose reductase activity by 50%). The data set is classed as biochemical. The procedure: An aldose reductase enzyme standard product was prepared from swine lens according to the method of S. Hayman et al. [Journal of Biological Chemistry, 240, 877-882 (1965)]. That is, swine lenses freeze-stored at -80° C. were homogenized with distilled water and cetrifuged at 10,000 g for 15 minutes. The supernatant was prepared into a 40% ammonium sulfate solution and subjected to cetrifugation at 10,000 g for 10 minutes. The supernatant obtained was dialyzed overnight against a 0.05M sodium chloride solution to give a dialyzed solution, which was used as an enzyme standard product.
The activity of aldose reductase was determined by the above-mentioned method of S. Hayman et al. That is, the above-mentioned enzyme solution (25 μl) and a drug solution (25 μl) in 1% DMSO at various concentrations were added to a 40 mM phosphate buffer (200 μl, pH 6.2) containing final concentrations of 0.4M lithium sulfate, 0.1 mM NADPH (reduced type nicotinamide adenine dinucleotide phosphate) and 3 mM diglyceraldehyde as a substrate. The mixture was allowed to react at 25° C. for 2 minutes and the changes in absorbance at 340 nm was determined with COBAS FARA II (manufactured by Roche).
The changes in absorbance when 1% DMSO was added instead of the drug solution was taken as 100%, based on which 50% inhibition concentration (IC50) was calculated and shown in Table 1.
The test drug number indicates the example number to be mentioned later. Compound A is 3,4-dihydro-2,8-diisopropyl-3-thioxo-2H-1,4-benzoxazine-4-acetic acid disclosed in Japanese Patent Unexamined Publication 107970/1988.

The next data set has as its system Normal ICR mice. The following applies: mouse, in vivo. The procedure: The acute toxicity (safety) of the compound of the present invention was confirmed by the following method.
Normal ICR mice (male, 7 weeks old, 5 per group) were fasted for 18 hours and the compounds (300 mg/kg) of Example 11 and Example 20 were orally administered as 0.5% carboxymethylcellulose suspensions. To the control group, a 0.5% carboxymethylcellulose solution alone was orally administered and observation was continued for 14 days thereafter, during which period the mice were allowed to take feed and water freely.

[2] abbreviates: 10 mg/kg oral at 4, 8 and 24 hours.
Where [3] appears, read: 30 mg/kg oral at 4, 8 and 24 hours.

As for `O=C(O)CC1Cc2ccccc2N(Cc2nc3c(F)c(F)ccc3s2)C1=O` (stereo not shown) [Example 12, 1-(4,5-difluorobenzothiazol-2-yl)methyl-2-oxo-1,2,3,4-tetrahydro-1H-quinolin-3-ylacetic acid], in data set [1] (setting [2]), the “Sorbitol accumulation, erythrocytes” value was found to be 0.0%; the “Sorbitol accumulation, lens” value amounted to 78.8%; the “Sorbitol accumulation, sciatic nerve” value turned out to be 0.0%. For the same compound, on aldose reductase, the IC50 is 13 nM.
Take `Cc1ccc2c(c1)CC(CC(=O)O)C(=O)N2Cc1nc2c(F)c(F)cc(F)c2s1` (stereo not shown) [Example 17, 1-(4,5,7-trifluorobenzothiazol-2-yl)methyl-6-methyl-2-oxo-1,2,3,4-tetrahydro-1H-quinolin-3-ylacetic acid]: in data set [1] (setting [2]), the “Sorbitol accumulation, erythrocytes” value amounted to 31.2%; the “Sorbitol accumulation, lens” value is recorded as 46.9%; the “Sorbitol accumulation, sciatic nerve” value is 0.5%. Besides, the IC50 at aldose reductase is 11 nM.
For `CC(C)c1cccc2c1OC(C(C)C)C(=S)N2CC(=O)O` (stereo not shown) [Compound A, 3,4-dihydro-2,8-diisopropyl-3-thioxo-2H-1,4-benzoxazine-4-acetic acid, reference compound], in data set [1] (setting [3]), the “Sorbitol accumulation, erythrocytes” value is recorded as 53.7%; the “Sorbitol accumulation, lens” value is 87.3%; the “Sorbitol accumulation, sciatic nerve” value is listed as 54.9%.
As to `O=C(O)CC1Cc2ccccc2N(Cc2nc3c(F)c(F)cc(F)c3s2)C1=O` (stereo not shown) [Example 11, 1-(4,5,7-Trifluorobenzothiazol-2-Yl)Methyl-2-Oxo-1,2,3,4-Tetrahydro-1H-Quinolin-3-Ylacetic Acid], in data set [1] (setting [2]), the “Sorbitol accumulation, erythrocytes” value turned out to be 15.6%; the “Sorbitol accumulation, lens” value is 50.7%; the “Sorbitol accumulation, sciatic nerve” value was 0.0%. In addition, the “death of the mice” value with Normal ICR mice is given as “no case of death”. The IC50 at aldose reductase stood at 9 nM.
`O=C(O)Cc1cc2ccccc2n(Cc2nc3c(F)c(F)cc(F)c3s2)c1=O` [Example 20, 1-(4,5,7-trifluorobenzothiazol-2-yl)methyl-2-oxo-1,2-dihydro-1H-quinolin-3-ylacetic acid]: the “death of the mice” value with Normal ICR mice was “no case of death”. In addition, the IC50 on aldose reductase is 9.4 nM.
As for `O=C(O)CC1Cc2cc(F)ccc2N(Cc2nc3c(F)c(F)cc(F)c3s2)C1=O` (stereo not shown) [Example 19, 6-fluoro-1-(4,5,7-trifluorobenzothiazol-2-yl)methyl-2-oxo-1,2,3,4-tetrahydro-1H-quinolin-3-ylacetic acid], the IC50 on aldose reductase came to 12 nM.

For the origin of these results see US5543420A, “Quinoline-3-acetic acid derivative, process for production thereof and use thereof” (The Green Cross Corporation, priority 1993, dated 1996).
